Measured values published in patent EP0989131B1, “THIENOTRIAZOLODIAZEPINE COMPOUNDS AND MEDICINAL USES THEREOF” (priority 1996, dated 1998).
Like-named read-outs stand apart in the source and are kept apart here.

What was measured:
[1] = test system: CD11b expression of human histiocytic leukemia cell line U937; assay: Effect on CD11b expression of human histiocytic leukemia cell line U937 (cell ELISA); assay type: cell-based; details: U937 cells; for IC50: PDB 10 ng/ml, cultured 3 days, read-out: Inhibitory effect on CD11b expression (IC50)
Description: Effect on the expression of CD11b antigen, which constitutes the α chain of Mac-1, which is one of the adhesion molecules expressing on the surface of leukocytic cells, was investigated. U937 cells were suspended in RPMI1640 medium containing 20% fetal calf serum, plated with phorbol 12,13-dibutyrate (PDB, 10 ng/ml) and the test compound into 96-well filtration plates (30000 cells/well), and cultured for 3 days at 37°C in 5% CO2. After washing the cells once with RPMI1640 medium, rat anti-human CD11b monoclonal antibody (2 µg/ml) was added and the plates were stood for 1 hr under ice-cooling. The cells were washed twice and peroxidase-conjugated anti-rat immunoglobulin antibody (1 µg/ml) was added. The cells were stood for 1 hr under ice-cooling. The cells were washed 3 times and peroxidase substrate (o-phenylenediamine) for coloring was added. The plates were stood for 15 min at room temperature and absorbance at 490 nm was measured with a 96-well microplate reader, which was used as an indicator of CD 11b antigen expression.

[2] = test system: E-selectin expression in human umbilical vein-derived endothelial cells (HUVEC); assay: Inhibitory effect on TNF alpha-induced E-selectin expression in HUVEC (cell ELISA); assay type: cell-based; details: for IC50: tumour necrosis factor α 100 U/ml, 5 hr
Description: (§1) HUVEC was suspended in 199 medium containing 20% fetal calf serum, 20 µg/ml endothelial cell growth factor derived from bovine brain, and 100 µg/ml heparin, plated into 96-well microculture plates coated with collagen, and cultured at 37°C in 5% CO2. When cells grew to confluence, the cells received tumour necrosis factor α (20 U/ml for VCAM-1 expression induction, 100 U/ml for E-selectin expression induction) and the test compound, which was followed by further culture for 5 hr. The cells were washed once with 199 medium and mouse anti-human VCAM-1 monoclonal antibody (2 µg/ml) or rat anti-human E-selectin monocolnal antibody (2 µg/ml) was added. The cells were stood for 1 hr at room temperature. The cells were washed twice and peroxidase-conjugated anti-mouse immunoglobulin antibody or anti-rat immunoglobulin antibody was added. The cells were stood for 1 hr at room temperature. The cells were washed 3 times and 2,2'-azino-bis(3-ethylbenzothiazoline-6-sulfonic acid) as a peroxidase substrate was added. The plates were stood for 15 min at room temperature and absorbance at 405 n/490 nm was measured with a 96-well microplate reader, which was used as an indicator of VCAM-1 or E-selectin expression.

[3] = test system: VCAM-1 expression in human umbilical vein-derived endothelial cells (HUVEC); assay: Inhibitory effect on TNF alpha-induced VCAM-1 expression in HUVEC (cell ELISA); assay type: cell-based; details: for IC50: tumour necrosis factor α 20 U/ml, 5 hr
Description: as §1

[4] = test system: trinitrobenzenesulfonic acid (TNBS)-induced colitis; assay: Effect on trinitrobenzenesulfonic acid (TNBS)-induced colitis in rat; assay type: in vivo, SD rats; details: TNBS sensitized rats, 5 days
Description: Colitis was induced by intraintestinal injection of TNBS solution (60 mg/ml in 50% EtOH, 500 µl) to SD rats. Seven days later, rats were subjected to autopsy and large intestine (8 cm from anus) was cut out and weighed. Myeloperoxidase (MPO) activity in the intestinal tissue was measured and taken as an indicator of infiltrated leukocyte count. That is, the intestine was homogenized and a cycle of freeze-thawing of the tissue was repeated 3 times. The supernatant obtained by centrifugation was assayed for MPO activity using peroxidase substrate (o-phenylenediamine). MPO unit in the supernatant was calculated with the commercial MPO as a standard. The increase in intestinal weight and increase in MPO activity determined as above were taken as indicators of the degree of colitis. Test compound was suspended in 0.5% hydroxypropylmethylcellulose (Metolose)solution and administered p.o. ([…]) or intraintestinally (0.2 ml/rat) for 5 days beginning on the day of TNBS injection.

[5] = Toxicity test, repeated oral administration; assay type: in vivo; details: female rats, repeated oral administration for 10 days, 300 mg/kg
Description: Compound 2 was repeatedly administered orally to female rats for 10 days.

[6] = test system: carrageenan-induced colitis; assay: Effect on carrageenan-induced colitis in rabbits; assay type: in vivo; details: 10 mg/kg consecutively from day 0 for 8 weeks, autopsy day 56, control 10.9 ± 2.0, P<0.05 (Mann-Whitney's U-test)
Description: A mixed emulsion of 1% λ-degraded carrageenan and Freund's complete adjuvant was subcutaneously injected to rabbits for sensitization. Starting from the 7th day (day 0) from sensitization, λ-degraded carrageenan (250-1000 mg/day/rabbit) was forcibly administered orally for 8 weeks to induce colitis. The next day (day 56) of the termination of λ-degraded carrageenan intake, the rabbits were subjected to autopsy and disorder in large intestine was scored using abnormal observation of mucosal epithelium of the tissue sample, level of infiltration of inflammatory cells and the like as indices. The test compounds (10 mg/kg) were consecutively administered from day 0 for 8 weeks.

## 5-(2-chlorophenyl)-7-(morpholinocarbonylethyl)-10-methyl-3,4-dihydro-2H,7H-cyclopenta[4,5]thieno[3,2-f][1,2,4]triazolo[4,3-a][1,4]diazepine [Comparison Compound]
[1]
  IC50: > 3000 nM
[1]; ratio to Compound 2
  activity relative to the activity of Compound 2 (CD11b expression): not more than 1/100
[2]; ratio to Compound 2
  E-selectin expression inhibitory effect relative to the activity of Compound 2: not more than 1/130
[2]
  IC50: > 10 µM
[3]; ratio to Compound 2
  VCAM-1 expression inhibitory effect relative to that of Compound 2: not more than 1/90
[3]
  IC50: > 10 µM

## Cc1sc2c(c1C)C(c1ccc(Cl)cc1)=N[C@@H](CC(=O)Nc1ccc(O)cc1)c1nnc(C)n1-2 [Compound 1, (S)-2-[4-(4-chlorophenyl)-2,3,9-trimethyl-6H-thieno[3,2-f][1,2,4]triazolo[4,3-a][1,4]diazepin-6-yl]-N-(4-hydroxyphenyl)acetamide]
[4]; Table 3A, intraintestinal, 0.01 mg/site, P<0.01 (Dunnett's test)
  Intestinal weight (mg, mean ± S.D.): 501.5 ± 78.3 mg
[4]; Table 3A, intraintestinal, 0.1 mg/site, P<0.01 (Dunnett's test)
  Intestinal weight (mg, mean ± S.D.): 472.0 ± 43.4 mg
[4]; Table 3A, intraintestinal, 1 mg/site, P<0.01 (Dunnett's test)
  Intestinal weight (mg, mean ± S.D.): 460.8 ± 52.3 mg
[4]; Table 3B, intraintestinal, 0.01 mg/site, P<0.05 (Mann-Whitney's U-test)
  MPO activity (U/ml, mean ± S.D.): 0.716±0.158 U/ml
[4]; Table 3B, intraintestinal, 0.1 mg/site, P<0.05 (Mann-Whitney's U-test)
  MPO activity (U/ml, mean ± S.D.): 0.654±0.109 U/ml
[4]; Table 3B, intraintestinal, 1 mg/site, P<0.05 (Mann-Whitney's U-test)
  MPO activity (U/ml, mean ± S.D.): 0.676±0.172 U/ml

## Cc1sc2c(c1C)C(c1ccc(Cl)cc1)=N[C@@H](CC(=O)Nc1ccc(O)cc1)c1nnc(C)n1-2.O.O [Compound 2, (S)-2-[4-(4-chlorophenyl)-2,3,9-trimethyl-6H-thieno[3,2-f][1,2,4]triazolo[4,3-a][1,4]diazepin-6-yl]-N-(4-hydroxyphenyl)acetamide dihydrate]
[1]; Homo sapiens, U-937, 72 h
  IC50: < 30 nM
[2]; Homo sapiens
  IC50: 0.073 µM
[3]; Homo sapiens
  IC50: 0.11 µM
[5]
  death: No case of death was observed
[6]
  mean ± S.E. of score (disorder in large intestine): 5.3 ± 0.6
[4]; Table 4A, intraintestinal, 0.01 mg/site, P<0.01 (Dunnett's test)
  Intestinal weight (mg, mean ± S.D.): 499.6 ± 71.7 mg
[4]; Table 4A, intraintestinal, 0.1 mg/site, P<0.01 (Dunnett's test)
  Intestinal weight (mg, mean ± S.D.): 502.0 ± 51.5 mg
[4]; Table 4A, intraintestinal, 1 mg/site, P<0.05 (Dunnett's test)
  Intestinal weight (mg, mean ± S.D.): 536.0 ± 62.2 mg
[4]; Table 4B, intraintestinal, 0.01 mg/site, P<0.01 (Mann-Whitney's U-test)
  MPO activity (U/ml, mean ± S.D.): 0.354 ± 0.081 U/ml
[4]; Table 4B, intraintestinal, 0.1 mg/site, P<0.01 (Mann-Whitney's U-test)
  MPO activity (U/ml, mean ± S.D.): 0.334 ± 0.069 U/ml
[4]; Table 4B, intraintestinal, 1 mg/site, P<0.01 (Mann-Whitney's U-test)
  MPO activity (U/ml, mean ± S.D.): 0.345 ± 0.097 U/ml
[4]; Table 5A, oral, 0.03 mg/kg, significance none (Dunnett's test)
  Intestinal weight (mg, mean ± S.D.): 699.3 ± 163.7 mg
[4]; Table 5A, oral, 1 mg/kg, P<0.01 (Dunnett's test)
  Intestinal weight (mg, mean ± S.D.): 468.5 ± 47.6 mg
[4]; Table 5A, oral, 3 mg/kg, P<0.01 (Dunnett's test)
  Intestinal weight (mg, mean ± S.D.): 458.0 ± 34.7 mg
[4]; Table 5B, oral, 0.3 mg/kg, significance none (Mann-Whitney's U-test)
  MPO activity (U/ml, mean ± S.D.): 1.568 ± 0.538 U/ml
[4]; Table 5B, oral, 1 mg/kg, P<0.05 (Mann-Whitney's U-test)
  MPO activity (U/ml, mean ± S.D.): 0.769 ± 0.222 U/ml
[4]; Table 5B, oral, 3 mg/kg, P<0.05 (Mann-Whitney's U-test)
  MPO activity (U/ml, mean ± S.D.): 0.740 ± 0.142 U/ml
